In patent publication US11938121B2, “Treatment of infections and biofilm formation using a cellulose synthase inhibitor” (Purdue Research Foundation, priority 2020, dated 2024):

Biological target: T1, YFP-AtCESA6 (Arabidopsis thaliana, UniProt Q94JQ6)
T1 construct: expressed in transfected cells; host or cells: transgenic Arabidopsis thaliana YFP-AtCESA6 seedlings (total protein extract for DARTS; root epidermal cells for imaging)
T1 sequence (Q94JQ6 1-1084): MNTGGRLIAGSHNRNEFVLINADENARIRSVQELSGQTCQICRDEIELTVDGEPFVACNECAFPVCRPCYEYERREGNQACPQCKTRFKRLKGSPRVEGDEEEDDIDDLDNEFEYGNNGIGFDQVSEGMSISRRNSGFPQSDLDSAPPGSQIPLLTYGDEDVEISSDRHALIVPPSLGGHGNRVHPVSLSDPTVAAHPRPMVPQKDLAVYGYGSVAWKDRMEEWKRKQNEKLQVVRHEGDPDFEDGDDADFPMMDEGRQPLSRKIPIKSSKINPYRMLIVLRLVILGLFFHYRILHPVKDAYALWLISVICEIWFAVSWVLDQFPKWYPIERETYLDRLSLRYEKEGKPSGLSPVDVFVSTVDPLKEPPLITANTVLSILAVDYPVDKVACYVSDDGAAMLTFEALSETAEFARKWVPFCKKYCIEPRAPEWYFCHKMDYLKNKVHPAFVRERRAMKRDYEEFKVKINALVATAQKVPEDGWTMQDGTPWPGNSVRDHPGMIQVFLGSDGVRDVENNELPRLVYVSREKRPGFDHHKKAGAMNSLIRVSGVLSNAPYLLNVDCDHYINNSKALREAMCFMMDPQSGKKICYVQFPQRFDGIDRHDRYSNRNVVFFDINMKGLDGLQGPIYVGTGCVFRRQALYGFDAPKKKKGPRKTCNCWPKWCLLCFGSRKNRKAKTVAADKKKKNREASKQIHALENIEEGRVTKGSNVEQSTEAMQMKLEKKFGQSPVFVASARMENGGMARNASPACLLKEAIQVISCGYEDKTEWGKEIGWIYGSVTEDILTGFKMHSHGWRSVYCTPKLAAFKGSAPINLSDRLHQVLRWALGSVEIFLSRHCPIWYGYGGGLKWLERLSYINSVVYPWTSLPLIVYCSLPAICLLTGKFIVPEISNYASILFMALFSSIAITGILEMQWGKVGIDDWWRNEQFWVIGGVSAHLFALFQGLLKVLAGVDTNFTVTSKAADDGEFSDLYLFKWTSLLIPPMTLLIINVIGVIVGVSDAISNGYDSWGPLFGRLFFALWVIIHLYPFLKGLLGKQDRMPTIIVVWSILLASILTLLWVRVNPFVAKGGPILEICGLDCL
T1 sequence (O48946 1-1081 partner): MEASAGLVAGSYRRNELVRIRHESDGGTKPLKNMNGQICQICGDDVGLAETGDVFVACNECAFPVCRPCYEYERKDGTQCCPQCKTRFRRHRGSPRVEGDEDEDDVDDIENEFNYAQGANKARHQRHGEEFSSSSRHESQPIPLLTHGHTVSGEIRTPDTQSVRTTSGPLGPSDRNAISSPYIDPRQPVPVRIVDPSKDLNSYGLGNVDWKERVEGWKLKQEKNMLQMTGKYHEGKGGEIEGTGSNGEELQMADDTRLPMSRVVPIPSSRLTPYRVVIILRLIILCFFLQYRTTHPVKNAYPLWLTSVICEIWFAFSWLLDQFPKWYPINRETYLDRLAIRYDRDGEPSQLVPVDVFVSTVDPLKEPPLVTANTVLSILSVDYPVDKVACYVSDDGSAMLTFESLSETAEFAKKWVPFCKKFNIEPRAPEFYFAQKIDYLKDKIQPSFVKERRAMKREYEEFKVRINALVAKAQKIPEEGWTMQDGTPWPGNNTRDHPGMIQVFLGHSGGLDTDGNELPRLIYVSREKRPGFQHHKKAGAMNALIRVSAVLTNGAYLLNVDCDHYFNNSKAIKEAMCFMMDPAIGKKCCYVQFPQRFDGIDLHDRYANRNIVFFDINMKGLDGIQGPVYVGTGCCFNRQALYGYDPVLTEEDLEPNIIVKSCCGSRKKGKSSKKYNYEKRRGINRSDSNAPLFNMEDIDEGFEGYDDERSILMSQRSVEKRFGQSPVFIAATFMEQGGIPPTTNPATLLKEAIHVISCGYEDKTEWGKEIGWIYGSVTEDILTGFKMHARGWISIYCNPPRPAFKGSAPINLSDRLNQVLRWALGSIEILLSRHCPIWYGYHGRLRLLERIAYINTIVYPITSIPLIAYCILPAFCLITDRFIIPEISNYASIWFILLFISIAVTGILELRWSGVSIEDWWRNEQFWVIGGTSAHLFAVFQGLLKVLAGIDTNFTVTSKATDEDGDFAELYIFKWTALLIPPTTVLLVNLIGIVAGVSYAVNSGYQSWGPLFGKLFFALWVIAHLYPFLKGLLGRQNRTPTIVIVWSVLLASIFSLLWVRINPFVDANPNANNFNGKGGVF
T1 sequence (Q941L0 1-1065 partner): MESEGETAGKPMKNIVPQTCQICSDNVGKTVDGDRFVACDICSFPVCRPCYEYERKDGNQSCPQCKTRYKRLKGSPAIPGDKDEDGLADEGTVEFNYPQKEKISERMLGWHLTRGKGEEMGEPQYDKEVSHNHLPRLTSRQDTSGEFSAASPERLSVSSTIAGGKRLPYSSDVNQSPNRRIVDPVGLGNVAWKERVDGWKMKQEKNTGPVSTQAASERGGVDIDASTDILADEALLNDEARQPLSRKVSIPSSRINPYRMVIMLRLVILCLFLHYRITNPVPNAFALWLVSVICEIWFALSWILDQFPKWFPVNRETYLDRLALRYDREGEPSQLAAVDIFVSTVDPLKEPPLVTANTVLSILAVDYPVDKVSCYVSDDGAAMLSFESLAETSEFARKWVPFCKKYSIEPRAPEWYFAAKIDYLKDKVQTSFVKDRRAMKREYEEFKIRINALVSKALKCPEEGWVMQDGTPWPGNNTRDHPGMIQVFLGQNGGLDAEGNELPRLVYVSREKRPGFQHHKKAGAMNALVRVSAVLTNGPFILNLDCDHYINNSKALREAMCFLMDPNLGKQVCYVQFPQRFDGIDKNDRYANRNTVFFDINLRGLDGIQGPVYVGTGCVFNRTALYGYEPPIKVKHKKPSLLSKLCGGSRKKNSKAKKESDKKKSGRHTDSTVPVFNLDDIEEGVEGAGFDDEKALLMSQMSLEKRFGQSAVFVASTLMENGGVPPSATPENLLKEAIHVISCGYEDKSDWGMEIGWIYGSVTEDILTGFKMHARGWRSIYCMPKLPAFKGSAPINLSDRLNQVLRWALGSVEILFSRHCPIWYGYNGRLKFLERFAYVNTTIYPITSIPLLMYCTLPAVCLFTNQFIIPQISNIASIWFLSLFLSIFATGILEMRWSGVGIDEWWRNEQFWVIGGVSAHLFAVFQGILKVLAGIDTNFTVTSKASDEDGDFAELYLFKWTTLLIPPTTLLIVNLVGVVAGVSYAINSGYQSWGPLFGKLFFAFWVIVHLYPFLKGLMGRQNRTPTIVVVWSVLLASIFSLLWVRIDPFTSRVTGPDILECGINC
Assay: DARTS assay
Type: binding
Conditions: total protein from YFP-AtCESA6 seedlings, vs DMSO
Method: To further validate that ES20-1 targets AtCESA6, we looked for a direct interaction between ES20-1 and AtCESA6. We performed a DARTS (Drug Affinity Responsive Target Stability) assay to test the interaction of ES20-1 with endogenous AtCESA6. We incubated total protein from YFP-AtCESA6 seedlings with either DMSO (as a control) or ES20-1 and digested the mixtures with protease. […] We also purified the central cytosolic domain of AtCESA6 (CESA6c) from E. coli (FIG. 3J) and performed a Microscale thermophoresis (MST) assay to test its interaction with ES20-1. […] We purified AtCESA6 central cytoplasmic domain carrying missense mutation P595S (CESA6c^P595S) and tested its interaction with ES20 and ES20-1 (3O).
To test for an interaction between AtCESA6 and ES20-1 using a DARTS assay, 7-day-old YFP-AtCESA6 light-grown seedlings were harvested and ground to a powder in liquid nitrogen. The ground tissue was homogenized in lysis buffer (50 mM Tris-HCl, pH 7.5, 150 mM NaCl, 0.5% Triton X-100, 2 mM DTT, one tablet/50 mL EDTA free Pierce protease inhibitor [Thermo Fisher]) at 2:1 ratio (2 mL buffer: 1 g tissue). […] The X-ray films were scanned, and the signal intensity of each protein band was quantified after background subtraction using Image J. The relative intensities were quantified by dividing the values in ES20-1-treated samples by the values in DMSO-treated samples.

Cc1ccccc1C(=O)NNC(=S)NC(=O)c1ccccc1 [ES20-1]
interaction with endogenous AtCESA6 (protection from protease): interacts with endogenous AtCESA6 and protects it from degradation
